Measured values as given in US6395732B1, “Pyrimidin-aminomethyl-pyridine derivatives, their preparation and their use in the control of helicobacter bacteria” (BYK Gulden Lomberg Chemische Fabrik GmbH, priority 1998, dated 2002).

Legend:
Helicobacter pylori = experiment: Activity against Helicobacter pylori, agar method of Iwahi et al. (MIC 50); assay type: cell-based; conditions: Helicobacter pylori, 96 h; Columbia agar (Oxoid), growth period of 4 days; approximate values; read-out: Appr. MIC 50
Description: The compounds of the formula I were investigated with respect to their activity against Helicobacter pylori following the method described by Tomoyuki Iwahi et al. (Antimicrobial Agents and Chemotherapy, 1991, 490-496) using Columbia agar (Oxoid) and a growth period of 4 days.

Compound | melting point | MIC50 (Helicobacter pylori)
Cc1nc(C)c(Cl)c(NCc2nccc(SCCOCCSCc3ccncc3)c2C)n1 [Compound 42, (5-Chloro-2,6-dimethyl-pyrimidin-4-yl)-(3-methyl-4-{2-[2-(pyridin-4-ylmethylsulfanyl)-ethoxy]-ethylsulfanyl}-pyridin-2-ylmethyl)-amine] | 68 to 71 °C | ≤ 0.1 µg/mL
Cc1nc(C)c(Cl)c(NCc2nccc(SCCOCCOCCSCc3ccncc3)c2C)n1 [Compound 43, (5-Chloro-2,6-dimethyl-pyrimidin-4-yl)-[3-methyl-4-(2-{2-[2-(pyridin-4-ylmethylsulfanyl)-ethoxy]-ethoxy}-ethylsulfanyl)-pyridin-2-ylmethyl]-amine] | 84 to 86 °C | ≤ 0.1 µg/mL
Cc1nc(C)c(Cl)c(NCc2nccc(SCC3CCCN(C)C3)c2C)n1 (stereo not drawn) [Compound 44, (5-Chloro-2,6-dimethyl-pyrimidin-4-yl)-[3-methyl-4-(1-methyl-piperidin-3-ylmethylsulfanyl)-pyridin-2-ylmethyl]-amine] | 148 to 149 °C | ≤ 0.1 µg/mL
Cc1c(SCCCN2CCN(Cc3ccncc3)CC2)ccnc1CNc1ncncc1Cl [Compound 45, (5-Chloro-pyrimidin-4-yl)-{3-methyl-4-[3-(4-pyridin-4-ylmethyl-piperazin-1-yl)-propylsulfanyl]-pyridin-2-ylmethyl}-amine] | 149 to 151 °C | ≤ 0.1 µg/mL
Cc1nc(C)c(Cl)c(NCc2nccc(SCc3ccncc3)c2C)n1 [Compound 46, (5-Chloro-2,6-dimethyl-pyrimidin-4-yl)-[3-methyl-4-(pyridin-4-ylmethylsulfanyl)-pyridin-2-ylmethyl]-amine] | 188 to 191.9 °C | ≤ 0.1 µg/mL
Cc1nc(C)c(Cl)c(NCc2nccc(SCCCSCc3cccnc3)c2C)n1 [Compound 47, (5-Chloro-2,6-dimethyl-pyrimidin-4-yl)-{3-methyl-4-[3-(pyridin-3-ylmethylsulfanyl)-propylsulfanyl]-pyridin-2-ylmethyl}-amine] | 104 to 105 °C | ≤ 0.1 µg/mL
Cc1nc(C)c(Cl)c(NCc2nccc(SCCCSCc3ccccn3)c2C)n1 [Compound 48, (5-Chloro-2,6-dimethyl-pyrimidin-4-yl)-{3-methyl-4-[3-(pyridin-2-ylmethylsulfanyl)-propylsulfanyl]-pyridin-2-ylmethyl}-amine] | 100 to 101 °C | ≤ 0.1 µg/mL
Cc1c(OCCSCCn2c([N+](=O)[O-])cnc2C)ccnc1CNc1ncncc1Cl [Compound 49, (5-Chloro-pyrimidin-4-yl)-(3-methyl-4-{2-[2-(2-methyl-5-nitro-imidazol-1-yl)-ethylsulfanyl]-ethoxy}-pyridin-2-ylmethyl)-amine] | 145 to 147 °C | ≤ 0.1 µg/mL
Cc1nc(C)c(Cl)c(NCc2nccc(OCCCCSCc3ccccn3)c2C)n1 [Compound 51, (5-Chloro-2,6-dimethyl-pyrimidin-4-yl)-{3-methyl-4-[4-(pyridin-2-ylmethylsulfanyl)-butoxy]-pyridin-2-ylmethyl}-amine] | 113 to 114 °C | ≤ 0.1 µg/mL
Cc1nc(C)c(Cl)c(NCc2nccc(SCCOCCSCc3cccnc3)c2C)n1 [Compound 52, (5-Chloro-2,6-dimethyl-pyrimidin-4-yl)-(3-methyl-4-{2-[2-(pyridin-3-ylmethylsulfanyl)-ethoxy]-ethylsulfanyl}-pyridin-2-ylmethyl)-amine] | 90 to 92 °C | ≤ 0.1 µg/mL
Cc1nc(C)c(Cl)c(NCc2nccc(SCCOCCSCc3ccccn3)c2C)n1 [Compound 53, (5-Chloro-2,6-dimethyl-pyrimidin-4-yl)-(3-methyl-4-{2-[2-(pyridin-2-ylmethylsulfanyl)-ethoxy]ethylsulfanyl}-pyridin-2-ylmethyl)-amine] | 70 to 72 °C | ≤ 0.1 µg/mL
Cc1c(OCCSCc2ccncc2)ccnc1CNc1ncncc1Cl [Compound 54, (5-Chloro-pyrimidin-4-yl)-{3-methyl-4-[2-(pyridin-4-ylmethylsulfanyl)-ethoxy)-pyridine-2-ylmethyl}-amine] | 119 to 121 °C | ≤ 0.1 µg/mL
CN(CCO)c1ccnc(CNc2ncncc2Cl)c1Cl [Compound 55, 2-({3-Chloro-2-[(5-chloro-pyrimidin-4-ylamino)-methyl]-pyridin-4-yl}-methyl-amino)-ethanol] | 158 to 161 °C | ≤ 0.1 µg/mL

Further lines, results first:

melting point | MIC50 (Helicobacter pylori) | Compound
169 to 171 °C | ≤ 0.1 µg/mL | Cc1nc(C)c(Cl)c(NCc2nccc(OCCCSCCn3c([N+](=O)[O-])cnc3C)c2C)n1 [Compound 33, (5-Chloro-2,6-dimethyl-pyrimidin-4-yl)-(3-methyl-4-{3-[2-(2-methyl-5-nitro-imidazol-1-yl)-ethylsulfanyl]-propoxy}-pyridin-2-ylmethyl)-amine]
111 to 113 °C | ≤ 0.1 µg/mL | Cc1nc(C)c(Cl)c(NCc2nccc(OCCCSCc3ccncc3)c2C)n1 [Compound 34, (5-Chloro-2,6-dimethyl-pyrimidin-4-yl)-{3-methyl-4-[3-(pyridin-4-ylmethylsulfanyl)-propoxy]-pyridin-2-ylmethyl}-amine]
114 to 116 °C | ≤ 0.1 µg/mL | Cc1nc(C)c(Cl)c(NCc2nccc(OCCOCCSCCO)c2C)n1 [Compound 35, 2-[2-(2-{2-[(5-Chloro-2,6-dimethyl-pyrimidin-4-ylamino)-methyl]-3-methyl-pyridin-4-yloxy}-ethoxy)-ethylsulfanyl]-ethanol]
116 to 118 °C | ≤ 0.1 µg/mL | Cc1nc(C)c(Cl)c(NCc2nccc(OCCCCSCCO)c2C)n1 [Compound 36, 2-(4-{2-[(5-Chloro-2,6-dimethyl-pyrimidin-4-ylamino)-methyl]-3-methyl-pyridin-4-yloxy}-butylsulfanyl)-ethanol]
142 to 143 °C | ≤ 0.1 µg/mL | Cc1nc(C)c(Cl)c(NCc2nccc(SCCCCSCCO)c2C)n1 [Compound 37, 2-(4-{2-[(5-Chloro-2,6-dimethyl-pyrimidin-4-ylamino)-methyl]-3-methyl-pyridin-4-ylsulfanyl}-butylsulfanyl)-ethanol]
123 to 126 °C | ≤ 0.1 µg/mL | Cc1nc(C)c(Cl)c(NCc2nccc(SCCCN3CCN(CC4CN(Cc5ccncc5)C(=O)O4)CC3)c2C)n1 (stereo not drawn) [Compound 38, 5-[4-(3-{2-[(5-Chloro-2,6-dimethyl-pyrimidin-4-ylamino)-methyl]-3-methyl-pyridin-4-ylsulfanyl}-propyl)-piperazin-1-ylmethyl]-3-pyridin-4-ylmethyl-oxazolidin-2-one]
174 to 180 °C | ≤ 0.1 µg/mL | Cc1nc(C)c(Cl)c(NCc2nccc(SCCCSc3sccc3[N+](=O)[O-])c2C)n1 [Compound 40, (5-Chloro-2,6-dimethyl-pyrimidin-4-yl)-{3-methyl-4-[3-(3-nitro-thiophen-2-ylsulfanyl)-propylsulfanyl]-pyridin-2-ylmethyl}-amine]
112 to 115 °C | ≤ 0.1 µg/mL | Cc1nc(C)c(Cl)c(NCc2nccc(SCCCSCCSc3ncccn3)c2C)n1 [Compound 41, (5-Chloro-2,6-dimethyl-pyrimidin-4-yl)-(3-methyl-4-{3-[2-(pyrimidin-2-ylsulfanyl)-ethylsulfanyl]-propylsulfanyl}-pyridin-2-ylmethyl)-amine]
